Values of other authors as cited in US20250114486A1, “MARKED FATTY ACID DERIVATIVE, PRECURSOR COMPOUND THEREOF, AND USE THEREOF IN CONTRAST AGENT” (BEIJING NORMAL UNIVERSITY, priority 2022, published 2025).
Where two headings read alike, the source gives them in different places.

Conditions: female SD rats, cited from earlier work
[1] = 30 min after injection, reference 3
[2] = 30 min post-injection, reference 2
[3] = 60 min after injection, reference 2
[4] = 60 min after injection, reference 3
[5] = 60 min post-injection, reference 1
[6] = 60 min post-injection, reference 2
[7] = 120 min after injection, reference 3
[8] = 120 min post-injection, reference 1

In the case of `[99Tc].[C-]#[N+]CC(C)(C)OC.[C-]#[N+]CC(C)(C)OC.[C-]#[N+]CC(C)(C)OC.[C-]#[N+]CC(C)(C)OC.[C-]#[N+]CC(C)(C)OC.[C-]#[N+]CC(C)(C)OC` [^99mTc-MIBI], the “absolute myocardial uptake value” (10 min after injection, reference 2) is listed as 3.26±0.18 % ID/g, the “absolute myocardial uptake value” (10 min post-injection, reference 1) is listed as 3.70 % Dose/g and the “absolute myocardial uptake value” (20 min after injection, reference 2) is listed as 3.07 0.21 % ID/g. For the same compound, the “absolute myocardial uptake value” (30 min after injection, reference 2) was 3.13±0.12 % ID/g, the Heart-to-Blood ratio [1] was 114.6±34.70 and the “absolute myocardial uptake value” [1] was 3.16±0.56 % ID/g. For the same compound, the “absolute myocardial uptake value” (30 min post-injection, reference 1) was 3.16 % Dose/g, the Heart-to-Blood ratio [2] was 104.30 and the Heart-to-Lungs ratio [2] was 4.66±0.24. The Heart-to-Lungs ratio (30 min post-injection, reference 3) was 3.57±0.72, the Heart-to-Liver ratio [3] was 2.65±0.22 and the “absolute myocardial uptake value” [3] was 3.29±0.12 % ID/g. For the same compound, the Heart-to-Blood ratio [4] was 137.80±35.00, the Heart-to-Liver ratio [4] was 4.25±0.84 and the “absolute myocardial uptake value” [4] was 3.14±0.42 % ID/g. The Heart-to-Liver ratio [5] was 2.04±0.17, the Heart-to-Lungs ratio [5] was 6.77±0.55 and the “absolute myocardial uptake value” [5] was 3.04 % Dose/g. For the same compound, the Heart-to-Blood ratio [6] was 164.50, the Heart-to-Lungs ratio [6] was 7.32±0.28 and the Heart-to-Lungs ratio (60 min post-injection, reference 3) was 6.41±1.25. For the same compound, the Heart-to-Blood ratio [7] was 209.00±12.40, the Heart-to-Liver ratio [7] was 4.52±1.57 and the “absolute myocardial uptake value” [7] was 2.83±0.25 % ID/g. For the same compound, the Heart-to-Liver ratio [8] was 2.96±0.34, the Heart-to-Lungs ratio [8] was 6.48±0.51 and the Heart-to-Lungs ratio (120 min post-injection, reference 3) was 7.97±1.89.
